Results as given in ChEMBL document CHEMBL4765407, “Design, synthesis and high antitumor potential of new unsymmetrical bisacridine derivatives towards human solid tumors, specifically pancreatic cancers and their unique ability to stabilize DNA G-quadruplexes” (Eur J Med Chem, 2020).

Legend:
DU-145 [1] = assay: Cytotoxicity against human DU-145 cells assessed as reduction in cell viability measured after 72 hrs by SRB assay; type: functional, cell-based; conditions: DU-145, 72 h
NCI-H460 = assay: Cytotoxicity against human NCI-H460 cells assessed as reduction in cell viability measured after 72 hrs by SRB assay; type: functional, cell-based; conditions: NCI-H460, 72 h
HCT-116 = assay: Cytotoxicity against human HCT-116 cells assessed as reduction in cell viability measured after 72 hrs by SRB assay; type: functional, cell-based; conditions: HCT-116, 72 h
MCF7 = assay: Cytotoxicity against human MCF7 cells assessed as reduction in cell viability measured after 72 hrs by SRB assay; type: functional, cell-based; conditions: MCF7, 72 h
MDA-MB-231 [2] = assay: Cytotoxicity against human MDA-MB-231 cells assessed as reduction in cell viability measured after 72 hrs by SRB assay; type: functional, cell-based; conditions: MDA-MB-231, 72 h
PANC-1 [3] = assay: Cytotoxicity against human PANC-1 cells assessed as reduction in cell viability measured after 72 hrs by SRB assay; type: functional, cell-based; conditions: PANC-1, 72 h
MIA PaCa-2 [4] = assay: Cytotoxicity against human MIA PaCa-2 cells assessed as reduction in cell viability measured after 72 hrs by SRB assay; type: functional, cell-based; conditions: MIA PaCa-2, 72 h
BXPC-3 [5] = assay: Cytotoxicity against human BXPC-3 cells assessed as reduction in cell viability measured after 72 hrs by SRB assay; type: functional, cell-based; conditions: BXPC-3, 72 h
ASPC1 [6] = assay: Cytotoxicity against human ASPC1 cells assessed as reduction in cell viability measured after 72 hrs by SRB assay; type: functional, cell-based; conditions: ASPC1, 72 h
Capan-2 = assay: Cytotoxicity against human Capan-2 cells assessed as reduction in cell viability measured after 72 hrs by SRB assay; type: functional, cell-based; conditions: Capan-2, 72 h
PANC-1 [7] = assay: Antitumour activity against human PANC-1 cells xenografted in Crl:Nu-Foxnl nu mouse assessed as inhibition of tumour growth at total effective dose of 16 mg/kg, iv measured on day 33; type: functional; conditions: PANC-1, iv, 792 h, time 33 day, read-out: TGI
MIA PaCa-2 [8] = assay: Antitumour activity against human MIA PaCa-2 cells xenografted in Crl:Nu-Foxnl nu mouse assessed as inhibition of tumour growth at total effective dose of 12 mg/kg, ip measured on day 15; type: functional; conditions: MIA PaCa-2, ip, 360 h, time 15 day, read-out: TGI
BXPC-3 [9] = assay: Antitumour activity against human BXPC-3 cells xenografted in Crl:Nu-Foxnl nu mouse assessed as inhibition of tumour growth at total effective dose of 16 mg/kg, iv measured on day 44; type: functional; conditions: BXPC-3, iv, 1056 h, time 44 day, read-out: TGI
BXPC-3 [10] = assay: Antitumour activity against human BXPC-3 cells xenografted in Crl:Nu-Foxnl nu mouse assessed as inhibition of tumour growth at total effective dose of 16 mg/kg, iv measured on day 32; type: functional; conditions: BXPC-3, iv, 768 h, time 32 day, read-out: TGI
ASPC1 [11] = assay: Antitumour activity against human ASPC1 cells xenografted in Crl:Nu-Foxnl nu mouse assessed as inhibition of tumour growth at total effective dose of 16 mg/kg, iv measured on day 39; type: functional; conditions: 936 h, time 39 day, read-out: TGI
DU-145 [12] = assay: Antitumour activity against human DU-145 cells xenografted in Crl:Nu-Foxnl nu mouse assessed as inhibition of tumour growth at total effective dose of 16 mg/kg, iv measured on day 33; type: functional; conditions: DU-145, iv, 792 h, time 33 day, read-out: TGI
MDA-MB-231 [13] = assay: Antitumour activity against human MDA-MB-231 cells xenografted in Crl:Nu-Foxnl nu mouse assessed as inhibition of tumour growth at total effective dose of 32 mg/kg, iv measured on day 32; type: functional; conditions: MDA-MB-231, iv, 768 h, time 32 day, read-out: TGI
[14] = Toxicity in BALB/c mouse assessed as effect on body weight at total dose of 6 mg/kg, iv administered as 3 times per week for 2 weeks measured for 71 days; type: organism-based; conditions: in vivo, 1704 h, time 71 day
Quadruplex DNA [15] = assay: Stabilization of 5'-FAM/3'-TAMRA labeled c-Myc promoter G4 quadruplex DNA FPu18 (unknown origin) assessed as change in melting temperature at 10 microM measured after 15 mins by FRET assay; type: nucleic-acid assay
Quadruplex DNA [16] = assay: Stabilization of 5'-FAM/3'-TAMRA labeled telomeric G4 quadruplex DNA F21T (unknown origin) assessed as change in melting temperature at 10 microM measured after 15 mins by FRET assay; type: nucleic-acid assay
Quadruplex DNA [17] = assay: Stabilization of 5'-FAM/3'-TAMRA labeled K-Ras G4 quadruplex DNA (unknown origin) assessed as change in melting temperature at 10 microM measured after 15 mins by FRET assay; type: nucleic-acid assay
[18] = Stabilization of ds 5'-FAM-d(TATAGCTATA-HEG-TATAGCTATA)-TAMRA-3' (unknown origin) assessed as change in melting temperature at 10 microM measured after 15 mins by FRET assay; conditions: Homo sapiens
[19] = Toxicity in BALB/c mouse assessed as macroscopic anatomopathological changes at total dose of 6 mg/kg, iv administered as 3 times per week for 2 weeks measured for 71 days; type: organism-based; conditions: in vivo, 1704 h, time 71 day
PANC-1 [20] = assay: Antitumour activity against human PANC-1 cells xenografted in Crl:Nu-Foxnl nu mouse assessed as inhibition of tumour growth at total effective dose of 160 mg/kg, iv measured on day 40; type: functional; conditions: PANC-1, iv, 960 h, time 40 day, read-out: TGI
BXPC-3 [21] = assay: Antitumour activity against human BXPC-3 cells xenografted in Crl:Nu-Foxnl nu mouse assessed as inhibition of tumour growth at total effective dose of 160 mg/kg, iv measured on day 29; type: functional; conditions: BXPC-3, iv, 696 h, time 29 day, read-out: TGI
[22] = Toxicity in BALB/c mouse assessed as macroscopic anatomopathological changes at total dose of 120 mg/kg, iv administered as 3 times per week for 2 weeks measured for 65 days; type: organism-based; conditions: in vivo, 1560 h, time 65 day
[23] = Toxicity in BALB/c mouse assessed as effect on body weight at total dose of 120 mg/kg, iv administered as 3 times per week for 2 weeks measured for 65 days; type: organism-based; conditions: in vivo, 1560 h, time 65 day
PANC-1 [24] = assay: Antitumour activity against human PANC-1 cells xenografted in Crl:Nu-Foxnl nu mouse assessed as inhibition of tumour growth at total effective dose of 80 mg/kg, iv measured on day 56; type: functional; conditions: PANC-1, iv, 1344 h, time 56 day, read-out: TGI
MIA PaCa-2 [25] = assay: Antitumour activity against human MIA PaCa-2 cells xenografted in Crl:Nu-Foxnl nu mouse assessed as inhibition of tumour growth at total effective dose of 20 mg/kg, ip measured on day 33; type: functional; conditions: MIA PaCa-2, ip, 792 h, time 33 day, read-out: TGI
BXPC-3 [26] = assay: Antitumour activity against human BXPC-3 cells xenografted in Crl:Nu-Foxnl nu mouse assessed as inhibition of tumour growth at total effective dose of 80 mg/kg, iv measured on day 32; type: functional; conditions: BXPC-3, iv, 768 h, time 32 day, read-out: TGI
PANC-1 [27] = assay: Antitumour activity against human PANC-1 cells xenografted in Crl:Nu-Foxnl nu mouse assessed as inhibition of tumour growth at total effective dose of 48 mg/kg, iv measured on day 32; type: functional; conditions: PANC-1, iv, 768 h, time 32 day, read-out: TGI
[28] = Toxicity in BALB/c mouse assessed as effect on body weight at 60 mg/kg, iv administered as single dose measured for 64 days; type: organism-based; conditions: in vivo, 1536 h, time 64 day
[29] = Toxicity in BALB/c mouse assessed as macroscopic anatomopathological changes at 60 mg/kg, iv administered as single dose measured for 64 days; type: organism-based; conditions: in vivo, 1536 h, time 64 day

SMILES	IC50 (DU-145 [1]) [nM]	IC50 (NCI-H460) [nM]	IC50 (HCT-116) [nM]	IC50 (MDA-MB-231 [2]) [nM]	IC50 (PANC-1 [3]) [nM]	IC50 (MIA PaCa-2 [4]) [nM]	IC50 (BXPC-3 [5]) [nM]	IC50 (ASPC1 [6]) [nM]	IC50 (Capan-2) [nM]	ΔTm (Quadruplex DNA [15]) [°C]	ΔTm (Quadruplex DNA [16]) [°C]	ΔTm (Quadruplex DNA [17]) [°C]	ΔTm [18] [°C]	also measured
O=c1c2ccccc2n2cnc3ccc(NCCCN4CCN(CCCNc5c6ccccc6nc6cccc([N+](=O)[O-])c56)CC4)c1c32	22	15	25	21	24	39	54	69	32	23.3	30	27.6	5.4	IC50 (MCF7): 82 nM; inhibition in vivo at 16 mg/kg (PANC-1 [7]): 80%; inhibition in vivo at 12 mg/kg (MIA PaCa-2 [8]): 38%; inhibition in vivo at 16 mg/kg (BXPC-3 [9]): 81%; inhibition in vivo at 16 mg/kg (BXPC-3 [10]): 48%; inhibition in vivo at 16 mg/kg (ASPC1 [11]): 29%; inhibition in vivo at 16 mg/kg (DU-145 [12]): 61%; inhibition in vivo at 32 mg/kg (MDA-MB-231 [13]): 53%; Activity [14]: Non-Toxic; Activity [19]: Non-Toxic
Cc1cc(C(N)CCN2CCN(CCCNc3ccc4ncn5c6ccccc6c(=O)c3c45)CC2)c([N+](=O)[O-])c2cc3ccccc3nc12 (stereo unspecified)	62		45		65	58	351	240		27	19.2	19.9	3.6	inhibition in vivo at 160 mg/kg (PANC-1 [20]): 64%; inhibition in vivo at 160 mg/kg (BXPC-3 [21]): 40%; Activity [22]: Non-Toxic; Activity [23]: Non-Toxic
Cc1cc(NCCCN(C)CCCNc2ccc3ncn4c5ccc(O)cc5c(=O)c2c34)c([N+](=O)[O-])c2cc3ccccc3nc12	59	95	40	52	216	59	169	152	52	27.6	18.3	10.7	2.8	inhibition in vivo at 80 mg/kg (PANC-1 [24]): 64%; inhibition in vivo at 20 mg/kg (MIA PaCa-2 [25]): 55%; inhibition in vivo at 80 mg/kg (BXPC-3 [26]): 77%; inhibition in vivo at 48 mg/kg (PANC-1 [27]): 63%; Activity [28]: Non-Toxic; Activity [29]: Non-Toxic
